Where two headings read alike, the source gives them in different places.

This note sets out measurements from patent publication EP0411495A2, “Ergoline derivatives of proline and related compounds having dopaminergic activity” (priority 1989, dated 1991).

In series [1] the test system is mouse. Kind of series: Locomotor activity in the mouse. In kind it is in vivo.
For series [2], the system named is spontaneously hypertensive rats (SHR). Kind of series: Antihypertensive activity on spontaneously hypertensive rats (SHR). Conditions: for Mean arterial pressure % reduction: SHR; for hypotensive activity: result in words. In kind it is in vivo, rat.
The test system of another series is isolated rat uterus. An excerpt: All the compounds of the invention have a marked antiserotonin activity in the in vitro test on isolated rat uterus.
The next series relates to reserpinized rat. As to the kind of experiment: Antihyperprolactinemic activity in the reserpinized rat. In kind it is in vivo. Conditions: for Plasmatic prolactin % reduction: reserpinized rat; for antihyperprolactinemic activity: result in words. An excerpt: All compounds (I) have a marked antihyperprolactinemic activity in the reserpinized rat.
The test system of the next series is guinea pig platelet. As to the kind of experiment: In vitro guinea pig platelet aggregation induced by ADP. It counts as cell-based. Conditions: guinea pig platelets. The text has this:
Moreover, compounds (I) have an effective antiag gregating activity on the in vitro guinea pig platelet aggregation induced by ADP.

The next series deals with rat. Kind of series: Stereotypy test in the rat. In kind it is in vivo. Conditions: for Mean score: stereotypy, rat; for activity on C.N.S.: result in words.
In a further series the test system is rat seminal vesicle. As to the kind of experiment: Adrenolytic activity, in vitro rat seminal vesicle test. The text has this:
Most of the compounds of formula (I) have a marked adrenolytic activity in the in vitro rat seminal vesicle test.

Series [3] has as its system mouse. As to the kind of experiment: Acute toxicity by the oral route in the mouse. In kind it is in vivo.
Setting [4] is: antiserotonin activity, in vitro isolated rat uterus.
[5] abbreviates: After 1 hour (dose 0.25 mg/kg os).
Setting [6] is: After 2 hours (dose 0.50 mg/kg os).

For the compound `CC(C)C[C@H]1C(=O)N2CCC[C@H]2[C@]2(O)O[C@](NC(=O)[C@@H]3C[C@@H]4c5cccc6[nH]cc(c56)C[C@H]4N(C)C3)(C(C)C)C(=O)N12` [Dihydro-α-ergocryptine, reference compound], the “% inhibition” value in the series with mouse [1] (dose 20 mg/kg i.p.) amounted to 74.3%. Moreover, the “Mean arterial pressure % reduction” value in series [2] (dose = 1 mg/kg i.p.) turned out to be 18.3%; in series [2] (dose = 3 mg/kg i.p.) it was 29.0%. The same compound showed an ED₅₀ with isolated rat uterus (setting [4]) of 0.035 µg/mL. Also, the “Plasmatic prolactin % reduction” value is given as 52.4% with reserpinized rat (setting [5]) and 66.1% in the series on reserpinized rat (setting [6]). Moreover, the “Platelet aggregation % reduction” value in the series on guinea pig platelet (Dose 20 mcg/ml) turned out to be 25%.
Take `CC(C)[C@@]1(NC(=O)[C@@H]2C[C@@H]3c4cccc5[nH]cc(c45)C[C@H]3N(C)C2)O[C@@]2(O)[C@@H]3CCCN3C(=O)[C@H](Cc3ccccc3)N2C1=O` [Dihydroergocristine, reference compound]: in the series on rat (dose 10 mg/kg i.p.), the Mean score came to 2.37. In the series on mouse [1] (dose 10 mg/kg i.p.), the “% inhibition” value stood at 47.7%. The “Mean arterial pressure % reduction” value amounted to 18.1% in series [2] (dose = 1 mg/kg i.p.) and 32.0% in series [2] (dose = 3 mg/kg i.p.). For the same compound, the ED₅₀ in the series on isolated rat uterus (setting [4]) is 0.007 µg/mL. The “Plasmatic prolactin % reduction” value in the series on reserpinized rat (setting [5]) was 47.4%. The “Platelet aggregation % reduction” value in the series on guinea pig platelet (Dose 40 mcg/ml) was determined as 25%.
For `CC[C@@H](CO)NC(=O)[C@@H]1C=C2c3cccc4[nH]cc(c34)C[C@H]2N(C)C1` [Methylergometrine, reference compound], the “Mean arterial pressure % reduction” value in series [2] (dose = 1 mg/kg i.p.) is listed as 15.7%; in series [2] (dose = 3 mg/kg i.p.), 29.4%.
Compound `CC[C@@H](CO)NC(=O)[C@@H]1C=C2c3cccc4c3c(cn4C)C[C@H]2N(C)C1` [Methysergid, reference compound] gave an ED₅₀ in the series with rat seminal vesicle of 2.48 µg/mL.
As to `COC(=O)[C@@H]1CCCN1C(=O)[C@@H]1C=C2c3cccc4[nH]cc(c34)C[C@H]2N(C)C1.O=C(O)/C=C\C(=O)O` [P 1409, N-(D-Lysergyl)-L-proline methyl ester maleate], the “activity on C.N.S.” value in the series with rat is “marked activity on C.N.S”. Besides, the Mean score with rat (dose 1.25 mg/kg i.p.) is recorded as 1.00. In the series on mouse [1] (dose 2.5 mg/kg i.p.), the “% inhibition” value was 69.5%. In addition, the “Mean arterial pressure % reduction” value stood at 22.1% in series [2] (dose = 1 mg/kg i.p.) and 27.5% in series [2] (dose = 3 mg/kg i.p.). For the same compound, the hypotensive activity result in series [2] is reported as “high hypotensive activity”. The ED₅₀ with rat seminal vesicle stood at 1.02 µg/mL; with isolated rat uterus, 0.010 µg/mL. In addition, the antiserotonin activity result with isolated rat uterus was “remarkable antiserotonin activity”.
On to `CN1C[C@H](C(=O)N2CCC[C@H]2CO)C=C2c3cccc4[nH]cc(c34)C[C@H]21.O=C(O)/C=C\C(=O)O` [P 1410], for which, in the series with rat, the “activity on C.N.S.” value is recorded as “marked activity on C.N.S”. Also, the Mean score in the series with rat (dose 10 mg/kg i.p.) stood at 2.62. Further, the “Mean arterial pressure % reduction” value in series [2] (dose = 1 mg/kg i.p.) came out at 17.8%. The hypotensive activity entry in series [2] was “high hypotensive activity”. The same compound had an ED₅₀ in the series on isolated rat uterus (setting [4]) of 0.059 µg/mL. For the same compound, the antiserotonin activity result in the series on isolated rat uterus (result in words) is given as “remarkable antiserotonin activity”. In the series on reserpinized rat (setting [5]), the “Plasmatic prolactin % reduction” value stood at 65.7%. Also, the antihyperprolactinemic activity result in the series with reserpinized rat is “interesting antihyperprolactinemic activity”.
As for `CN1C[C@H](C(=O)N2CCC[C@H]2C(=O)O)C=C2c3cccc4[nH]cc(c34)C[C@H]21` [P 1411], the “% inhibition” value in the series on mouse [1] (dose 20 mg/kg i.p.) was 80.9%. In the series with isolated rat uterus (setting [4]), this compound registered an ED₅₀ of 0.370 µg/mL.
Take `COC(=O)[C@@H]1C[C@@H](O)CN1C(=O)[C@@H]1C=C2c3cccc4[nH]cc(c34)C[C@H]2N(C)C1.O=C(O)/C=C\C(=O)O` [P 1413, N-(D-Lysergyl)-4-hydroxy-L-proline methyl ester maleate]: in the series with isolated rat uterus, the ED₅₀ was 0.004 µg/mL and the antiserotonin activity entry is given as “remarkable antiserotonin activity”.
`CN1C[C@H](C(=O)N2C[C@H](O)C[C@H]2CO)C=C2c3cccc4[nH]cc(c34)C[C@H]21` [P 1414, N-(D-Lysergyl)-4-hydroxy-L-prolinol]: the “Mean arterial pressure % reduction” value in series [2] (dose = 1 mg/kg i.p.) came out at 17.9%; in series [2] (dose = 3 mg/kg i.p.) it was 31.2%. In addition, the hypotensive activity result in series [2] was “high hypotensive activity”. Moreover, in the series on isolated rat uterus (setting [4]), the ED₅₀ was determined as 0.007 µg/mL.
Consider `CN1C[C@H](C(=O)N2CC(O)C[C@H]2CO)C=C2c3cccc4[nH]c(Br)c(c34)C[C@H]21` (stereo partly shown) [P 1415], for which the ED₅₀ in the series with rat seminal vesicle is 0.95 µg/mL; with isolated rat uterus (setting [4]), 0.015 µg/mL. Besides, in the series on isolated rat uterus (result in words), the antiserotonin activity result is “remarkable antiserotonin activity”.
For the compound `CN1C[C@H](C(=O)N2CC(O)C[C@H]2CO)C=C2c3cccc4c3c(cn4C)C[C@H]21.Cl` (stereo partly shown) [P 1417], the ED₅₀ was 3.52 µg/mL in the series with rat seminal vesicle and 0.001 µg/mL with isolated rat uterus (setting [4]). The antiserotonin activity result with isolated rat uterus (result in words) is reported as “remarkable antiserotonin activity”.
In the case of `CN1C[C@H](C(=O)N2CCC[C@H]2C#N)C=C2c3cccc4[nH]cc(c34)C[C@H]21.Cl` [P 1419], in the series with rat, the “activity on C.N.S.” value is given as “marked activity on C.N.S”. In the series with rat (dose 0.625 mg/kg i.p.), this compound showed a Mean score of 2.50. Moreover, the “% inhibition” value in the series with mouse [1] (dose 0.625 mg/kg i.p.) came out at 63.2%. Moreover, the values for the ED₅₀ with rat seminal vesicle and with isolated rat uterus (setting [4]) were 0.22 µg/mL and 0.073 µg/mL, respectively. Also, the “Plasmatic prolactin % reduction” value was found to be 68.4% with reserpinized rat (setting [5]) and 84.1% in the series with reserpinized rat (setting [6]). In addition, the antihyperprolactinemic activity result in the series on reserpinized rat was “interesting antihyperprolactinemic activity”. Also, the acute toxicity entry in the series on mouse [3] is on record as “slightly more toxic”.
With `CN1C[C@H](C(=O)N2CCC[C@H]2C#N)C=C2c3cccc4c3c(cn4C)C[C@H]21.Cl` [P 1420], the “activity on C.N.S.” value in the series with rat was “marked activity on C.N.S”. The compound further registered a Mean score in the series on rat (dose 2.5 mg/kg i.p.) of 2.17. In addition, in the series on mouse [1] (dose 5 mg/kg i.p.), the “% inhibition” value was 82.7%. For the same compound, the ED₅₀ with rat seminal vesicle turned out to be 0.50 µg/mL; with isolated rat uterus (setting [4]), 0.003 µg/mL. In addition, the antiserotonin activity result with isolated rat uterus (result in words) is listed as “remarkable antiserotonin activity”. Further, in the series on reserpinized rat (setting [5]), the “Plasmatic prolactin % reduction” value was determined as 50.1%. Also, in the series with reserpinized rat, the antihyperprolactinemic activity result was “interesting antihyperprolactinemic activity”. Also, the acute toxicity result in the series on mouse [3] is “slightly more toxic”.
Consider `CN1C[C@H](CN2CCC[C@H]2CO)C=C2c3cccc4[nH]cc(c34)C[C@H]21.Cl.Cl` [P 1421], for which the ED₅₀ in the series with rat seminal vesicle is 2.82 µg/mL; in the series with isolated rat uterus (setting [4]), 0.011 µg/mL. Also, the antiserotonin activity entry in the series with isolated rat uterus (result in words) is “remarkable antiserotonin activity”. Besides, in the series with guinea pig platelet (Dose 40 mcg/ml), the “Platelet aggregation % reduction” value is listed as 25%.
For the compound `CN1CC(C(=O)N2CC(O)CC2CO)CC2c3cccc4[nH]cc(c34)CC21` (stereo not shown) [P 1422], the “% inhibition” value in the series with mouse [1] (dose 20 mg/kg i.p.) came to 79.8%. Moreover, the “Mean arterial pressure % reduction” value in series [2] (dose = 1 mg/kg i.p.) is 18.8%; in series [2] (dose = 3 mg/kg i.p.), 40.8%. The hypotensive activity result in series [2] is given as “high hypotensive activity”. Further, the ED₅₀ with rat seminal vesicle was found to be 2.89 µg/mL; in the series on isolated rat uterus (setting [4]) it was 0.014 µg/mL. Besides, the antiserotonin activity result in the series on isolated rat uterus (result in words) is “remarkable antiserotonin activity”. The “Plasmatic prolactin % reduction” value with reserpinized rat (setting [5]) is 77.1%. Also, the antihyperprolactinemic activity result with reserpinized rat is “interesting antihyperprolactinemic activity”.
The compound `CC(C)C[C@H]1C(=O)N2CCC[C@H]2[C@]2(O)O[C@](NC(=O)[C@@H]3C=C4c5cccc6[nH]c(Br)c(c56)C[C@H]4N(C)C3)(C(C)C)C(=O)N12` [α-Bromocryptine, reference compound] had a Mean score with rat (dose 10 mg/kg i.p.) of 2.25. For the same compound, in the series with mouse [1] (dose 10 mg/kg i.p.), the “% inhibition” value worked out at 78.7%. This compound also registered an ED₅₀ with isolated rat uterus (setting [4]) of 0.470 µg/mL. Also, the “Plasmatic prolactin % reduction” value amounted to 78.2% in the series on reserpinized rat (setting [5]) and 80.9% with reserpinized rat (setting [6]). Also, the “Platelet aggregation % reduction” value in the series with guinea pig platelet (Dose 80 mcg/ml) was 25%.

For orientation: % inhibition means the drop in the measured response relative to a control, in per cent. Read a low % inhibition as a response near the control.
